Test results: US9695155B2, “Herbicidal substituted pyrimidinyloxy benzene compounds” (E. I. DU PONT DE NEMOURS AND COMPANY, priority 2013, dated 2017)

What was measured:
[1] = system: waterhemp_RES1 (ALS & Triazine resistant common waterhemp); test: Test E postemergence; format: in vivo, Amaranthus rudis
Method in brief: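 Response was scored visually on a 0-100 scale (100 = complete control) versus controls after 14 to 21 days in the greenhouse. Test chemicals, formulated with surfactant in a non-phytotoxic solvent mixture, had been applied preemergence to seeds in silt loam soil or postemergence to 1- to 4-leaf plants in potting medium.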

sunflower = test: Test C preemergence; format: in vivo, Helianthus annuus; details: for Sunflower plant response rating: preemergence, scale 0 (no effect) to 100 (complete control)
Excerpt: (§1) Seeds of plant species selected from blackgrass (Alopecurus myosuroides), Italian ryegrass (Lolium multiflorum), wheat, winter (winter wheat, Triticum aestivum), galium (catchweed bedstraw, Galium aparine), corn (Zea mays), large (Lg) crabgrass (Digitaria sanguinalis), giant foxtail (Setaria faberii), johnsongrass (Sorghum halepense), lambsquarters (Chenopodium album), morningglory (Ipomoea coccinea), yellow nutsedge (Cyperus esculentus), pigweed (Amaranthus retroflexus), ragweed (common ragweed, Ambrosia elatior), soybean (Glycine max), barnyardgrass (Echinochloa crus-galli), oilseed rape (Brassica napus), waterhemp (common waterhemp, Amaranthus rudis), kochia (Kochia scoparia), wild oat (Avena fatua), surinam grass (Brachiaria decumbens), foxtail, green (green foxtail, Setaria viridis), goosegrass (Eleusine indica), bromegrass, downy (downy bromegrass, Bromus tectorum), nightshade (eastern black nightshade, Solanum ptycanthum), cocklebur (common cocklebur, Xanthium strumarium), cupgrass, woolly (woolly cupgrass, Eriochloa villosa), bermudagrass (Cynodon dactylon), sunflower, (common oilseed sunflower, Helianthus annuus), Russian thistle (Salsola kali), and velvetleaf (Abutilon theophrasti) were planted into a blend of loam soil and sand and treated preemergence with test chemicals formulated in a non-phytotoxic solvent mixture which included a surfactant.
(§2) At the same time, plants selected from these crop and weed species and also barley, winter (winter barley, Hordeum vulgare), windgrass (Apera spica-venti), chickweed (common chickweed, Stellaria media), deadnettle (henbit deadnettle, Lamium amplexicaule), and canarygrass (littleseed canarygrass, Phalaris minor) were planted in pots containing Redi-Earth® planting medium (Scotts Company, 14111 Scottslawn Road, Marysville, Ohio 43041) comprising spaghnum peat moss, vermiculite, wetting agent and starter nutrients and treated with postemergence applications of test chemicals formulated in the same manner. Plants ranged in height from 2 to 18 cm (1- to 4-leaf stage) for postemergence treatments. Treated plants and controls were maintained in a greenhouse for 13 to 15 days, after which time all species were compared to controls and visually evaluated. Plant response ratings, summarized in Table C, are based on a scale of 0 to 100 where 0 is no effect and 100 is complete control. A dash (-) response means no test result.

surinam grass = test: Test C preemergence; format: in vivo, Brachiaria decumbens; details: for Surinam Grass plant response rating: preemergence, scale 0 (no effect) to 100 (complete control)
Excerpt: as §1, §2

cupgrass, woolly = test: Test C preemergence; format: in vivo, Eriochloa villosa; details: for Cupgrass, Woolly plant response rating: preemergence, scale 0 (no effect) to 100 (complete control)
Excerpt: as §1, §2

wild oat = test: Test C preemergence; format: in vivo, Avena fatua; details: for Oat, Wild plant response rating: preemergence, scale 0 (no effect) to 100 (complete control)
Excerpt: as §1, §2

foxtail, green = test: Test C preemergence; format: in vivo, Setaria viridis; details: for Foxtail, Green plant response rating: preemergence, scale 0 (no effect) to 100 (complete control)
Excerpt: as §1, §2

nightshade = test: Test C preemergence; format: in vivo, Solanum ptycanthum; details: preemergence, scale 0 (no effect) to 100 (complete control)
Excerpt: as §1, §2

bromegrass, downy = test: Test C preemergence; format: in vivo, Bromus tectorum; details: for Bromegrass, Downy plant response rating: preemergence, scale 0 (no effect) to 100 (complete control)
Excerpt: as §1, §2

bermudagrass = test: Test C preemergence; format: in vivo, Cynodon dactylon; details: for Bermudagrass plant response rating: preemergence, scale 0 (no effect) to 100 (complete control)
Excerpt: as §1, §2

[2] = Postemergence, 31 g ai/ha, scale 0 to 100
[3] = Postemergence, 62 g ai/ha, scale 0 to 100
[4] = Postemergence, 125 g ai/ha, scale 0 to 100
[5] = postemergence, 16 g ai/ha, scale 0 to 100, 0 no effect, 100 complete control
[6] = Preemergence, 31 g ai/ha, scale 0 to 100, 0 no effect, 100 complete control

In the case of `Clc1cnc(Oc2cccc(Br)c2-n2cc(Br)cn2)nc1` [Compound 65], the “Plant response rating, Waterhemp_RES1” value [1, 2] is reported as 85, the “Plant response rating, Waterhemp_RES1” value [1, 3] is reported as 90 and the “Plant response rating, Waterhemp_RES1” value [1, 4] is reported as 98. The “Plant response rating, Waterhemp_RES1” value ([1]; postemergence, 8 g ai/ha, scale 0 to 100, 0 no effect, 100 complete control) was 65 and the “Plant response rating, Waterhemp_RES1” value [1, 5] was 70.

`FC(F)(F)c1cnn(-c2ccccc2Oc2ncc(Br)cn2)c1` [Compound 18, 5-bromo-2-[2-[4-(trifluoromethyl)-1H-pyrazol-1-yl]phenoxy]pyrimidine] was tested, and the “Sunflower plant response rating” value (sunflower; 62 g ai/ha) was 0, the “Sunflower plant response rating” value (sunflower; 125 g ai/ha) was 0 and the “Sunflower plant response rating” value (sunflower; 250 g ai/ha) was 40. For the same compound, the “Plant response rating, Sunflower” value (sunflower; [6]) was 0, the “Surinam Grass plant response rating” value (surinam grass; 62 g ai/ha) was 30 and the “Surinam Grass plant response rating” value (surinam grass; 125 g ai/ha) was 100. For the same compound, the “Surinam Grass plant response rating” value (surinam grass; 250 g ai/ha) was 100, the “Plant response rating, Surinam Grass” value (surinam grass; [6]) was 20 and the “Cupgrass, Woolly plant response rating” value (cupgrass, woolly; 62 g ai/ha) was 55. The “Cupgrass, Woolly plant response rating” value (cupgrass, woolly; 125 g ai/ha) was 98, the “Cupgrass, Woolly plant response rating” value (cupgrass, woolly; 250 g ai/ha) was 100 and the “Plant response rating, Cupgrass, Woolly” value (cupgrass, woolly; [6]) was 40. The “Oat, Wild plant response rating” value (wild oat; 62 g ai/ha) was 50, the “Oat, Wild plant response rating” value (wild oat; 125 g ai/ha) was 80 and the “Oat, Wild plant response rating” value (wild oat; 250 g ai/ha) was 85. For the same compound, the “Plant response rating, Oat, Wild” value (wild oat; [6]) was 0, the “Foxtail, Green plant response rating” value (foxtail, green; 62 g ai/ha) was 90 and the “Foxtail, Green plant response rating” value (foxtail, green; 125 g ai/ha) was 90. The “Foxtail, Green plant response rating” value (foxtail, green; 250 g ai/ha) was 90, the “Plant response rating, Foxtail, Green” value (foxtail, green; [6]) was 85 and the “Nightshade plant response rating” value (nightshade; 62 g ai/ha) was 30. For the same compound, the “Nightshade plant response rating” value (nightshade; 125 g ai/ha) was 80, the “Nightshade plant response rating” value (nightshade; 250 g ai/ha) was 95 and the “Bromegrass, Downy plant response rating” value (bromegrass, downy; 62 g ai/ha) was 10. For the same compound, the “Bromegrass, Downy plant response rating” value (bromegrass, downy; 125 g ai/ha) was 50, the “Bromegrass, Downy plant response rating” value (bromegrass, downy; 250 g ai/ha) was 95 and the “Plant response rating, Bromegrass, Downy” value (bromegrass, downy; [6]) was 0. The “Bermudagrass plant response rating” value (bermudagrass; 62 g ai/ha) was 98, the “Bermudagrass plant response rating” value (bermudagrass; 125 g ai/ha) was 98 and the “Bermudagrass plant response rating” value (bermudagrass; 250 g ai/ha) was 100. The “Plant response rating, Bermudagrass” value (bermudagrass; [6]) was 95.

In the case of `N#Cc1cccc(Oc2ncc(Cl)cn2)c1-n1cc(C(F)(F)F)cn1` [Compound 58, 3-[(5-chloro-2-pyrimidinyl)oxy]-2-[4-(trifluoromethyl)-1H-pyrazol-1-yl]benzonitrile], the “Plant response rating, Waterhemp_RES1” value [1, 2] is reported as 80, the “Plant response rating, Waterhemp_RES1” value [1, 3] is reported as 95 and the “Plant response rating, Waterhemp_RES1” value [1, 4] is reported as 95. For the same compound, the “Plant response rating, Waterhemp_RES1” value ([1]; Postemergence, 250 g ai/ha, scale 0 to 100) was 100 and the “Plant response rating, Waterhemp_RES1” value [1, 5] was 80.
